In general, Kd refers to the concentration at which binding is half-saturated.

Experimental findings from article PMC11720699, “Developing Allosteric Chaperones for GBA1-Associated Disorders—An Integrated Computational and Experimental Approach” (International Journal of Molecular Sciences, 2024) are described below.

In experiment [1] the target is T1, human recombinant GCase (Cerezyme) (Homo sapiens, UniProt P04062, R534H).
T1 construct: The human full-length GCase protein (Cerezyme, wild type, not tagged; Genzyme, Naarden, The Netherlands); purchased Genzyme
T1 sequence (P04062 40-536 R534H): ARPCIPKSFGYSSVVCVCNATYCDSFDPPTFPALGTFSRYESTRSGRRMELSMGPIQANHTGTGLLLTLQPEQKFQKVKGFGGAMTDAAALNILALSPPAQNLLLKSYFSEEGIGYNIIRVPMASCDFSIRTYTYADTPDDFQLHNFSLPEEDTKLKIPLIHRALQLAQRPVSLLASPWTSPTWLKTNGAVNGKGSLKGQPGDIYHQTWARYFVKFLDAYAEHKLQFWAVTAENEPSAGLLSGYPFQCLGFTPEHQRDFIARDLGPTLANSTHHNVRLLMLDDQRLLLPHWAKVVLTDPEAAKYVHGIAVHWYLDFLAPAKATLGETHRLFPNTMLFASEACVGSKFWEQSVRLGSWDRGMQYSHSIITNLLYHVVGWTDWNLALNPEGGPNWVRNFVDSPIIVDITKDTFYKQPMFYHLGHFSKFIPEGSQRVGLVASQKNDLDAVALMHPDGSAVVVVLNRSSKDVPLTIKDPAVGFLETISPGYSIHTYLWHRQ
Description: Surface plasmon resonance (SPR) binding to immobilized GCase. The conditions noted are these: pH 7.4; for Chi^2 / Offset: SPR fit; for Dose-response / Kd / Rmax: SPR. The procedure:
The surface plasmon resonance (SPR) technique is used to detect changes in the refractive index on the surface of a sensor due to changes in mass. […] Binding to GCase by SPR was confirmed for selected compounds using recombinant human GCase protein at a neutral pH of 7.4 (Figure 4A,B). […] Compounds 2 and 3, along with isofagomine (IFG) as a control, were evaluated in an activity assay using lysates from wild-type fibroblasts (Figure 4C).
All SPR experiments were performed at 20 °C using the Biacore T200 (GE Healthcare, Uppsala, Sweden). SPR detects changes in the refractive index on the sensor surface due to mass changes, which helps measure the interaction between the GCase protein (Cerezyme) and the tested compounds.
The human full-length GCase protein (Cerezyme, wild type, not tagged; Genzyme, Naarden, The Netherlands) was immobilized on an SPR CM5 sensor (29149603, GE Healthcare, Chicago, IL, USA) using standard amino coupling with a high protein concentration of 100 µg/mL. A nine-point, 2-fold serial dilution starting from 180 µM of the compound (from a 10 mM stock solution in DMSO) was tested by SPR at pH 7.4 in a buffer containing 10 mM Hepes, 5 mM EDTA, 150 mM NaCl, 0.01% Tween-20, 0.5 mg/mL CM-Dextran, and 5% DMSO. Reference channels included empty, activated, and deactivated channels on the same SPR sensor. The raw SPR signals from the active channel with immobilized GCase were adjusted by subtracting signals from the reference channel and the running buffer (double referenced) and corrected for any DMSO signal mismatch. Binding affinity values were extracted by fitting the SPR data to a four-parameter logarithmic dose-response equation without constraints using GraphPad Prism version 10.2.3.

Experiment [2] concerns monohexosylceramide (HexCer). Nature of the experiment: HexCer substrate quantification by LC/MS-MS in GD patient fibroblasts. It counts as cell-based, human. The note with it: L444P/L444P fibroblasts. The procedure:
L444P/L444P fibroblasts have impaired GCase activity due to the presence of the mutation, resulting in the accumulation of toxic substrates, glucosylceramide (GlcCer), and other related sphingolipids in the lysosome. To evaluate the efficacy of the compounds in reducing substrate accumulation, we quantified monohexosylceramide (HexCer) species (including GluCer) after treatment of L444P/L444P fibroblasts with compounds 2 and 3. The accumulation and clearance of these substrates were measured by liquid chromatography-tandem mass spectrometry (LC/MS-MS), quantifying the total HexCer species. […] Moreover, at higher concentrations, it inhibited GCase activity (Figure 5A), leading to increased accumulation of HexCer (Figure 5C).
For fibroblast samples, cell pellets were dissolved in 150 µL of methanol containing 0.5% formic acid and 1 µM GalCer-d35 (C18 Galactosylceramide-d35 [d18:1/18:0-d35]; 24467 Cayman, Ann Arbor, MI, USA) as an internal standard. The samples were shaken for 1 h and sonicated once for 4 s at 30% amplitude. The supernatant was then collected by centrifugation at 13,000 G for 5 min at 4 °C. Sphingolipid analysis was performed using UPLC with an Agilent 1290 Infinity II/QQQ G6475 mass spectrometer system. […] HexCer was monitored in multiple reaction monitoring (MRM) mode, quantifying the 728.6 > 710.5 m/z transition.

As for `CN(Cc1ccccc1)Cc1nc(N)nc(Nc2cccc(Br)c2)n1` [Compound 2], in experiment [1], the “Chi^2” value was found to be 1.28 RU^2, the Offset is reported as 1.959 RU, the Dose-response entry is given as “Yes” and the Kd was 29.8 µM. Moreover, the Rmax in experiment [1] was found to be 35.57 RU. The “effect on HexCer levels” value in experiment [2] was “ineffective in lowering sphingolipid levels”.

For `CN(C(=O)c1cc(N)cc(Nc2cccc3c2OCO3)n1)c1ccccc1` [Compound 3], in experiment [1], the “Chi^2” value worked out at 2.61 RU^2, the Offset is on record as −1.406 RU, the Dose-response entry is reported as “Yes” and the dissociation constant Kd was determined as 50.7 µM. Besides, the Rmax in experiment [1] is recorded as 22.73 RU. Besides, the “effect on HexCer levels” value in experiment [2] was “successfully decreased HexCer levels”.
